“And” between values parts separate entries of the source, which are not always exact repeats. Equal values may be shown once. Where a name gives a salt, the structure may show the parent alone. Read-outs that look alike come from different tables or passages of the source.
Columns and labels:
[1] = test system: K562 (human chronic myelogenous leukemia cell line); assay: tumor cell proliferation, MTT or CCK8 assay, 72 h incubation; format: cell-based; conditions: K562, 72 h, read-out: IC50 on tumor cell proliferation, K562
Description: (§1) The heterocyclic alkynyl benzene compounds at different concentrations (1×10^−10˜1×10^−5M) were incubated for 72 hours individually applied to 6 cell lines K562 (human CML cell line), MOLT-4 (human ALL cell line), U937 (human CML cell line), MEG-01 (human CML cell line), L78 (human lung cancer cell line), Ba/F3-T315I (mice Pro-B cells transformed with Bcr-AblT315I and STI57′-resistant cell line). After incubation for 72 hrs, cell proliferation was then determined by MTT assay or CCK8 assay, and 4 hr incubation is further conducted, the absorbance at 570 nm (CCK8, 450 nm, 650 nm) was measured using enzyme Microplate Reader. […] Based on the inhibition potency of the heterocyclic alkynyl benzene compounds on the cell proliferation, IC50 values were calculated and summarized in the Table 1 and Table 2 (The compounds used were synthesized by Examples 1-40, and the compounds are marked with Drug No. series in Table 1).

[2] = test system: MEG-01 (Human megakaryoblastic leukaemia cell line); assay: as above; format: cell-based; conditions: MEG-01, 72 h, read-out: IC50 on tumor cell proliferation, MEG-01
Description: as §1

[3] = test system: MOLT-4 (Human acute lymphoblastic leukemia cell line); assay: as above; format: cell-based; conditions: MOLT-4, 72 h, read-out: IC50 on tumor cell proliferation, MOLT-4
Description: as §1

[4] = test system: K562R cells (imatinib-resistant cell line); assay: as above; format: cell-based; conditions: Homo sapiens, K-562R, read-out: IC50 on tumor cell proliferation, K562R cells
[5] = target: BAF3-T315I cells (Ba/F3 cell line stably expressing BCR/ABL T315I) (Homo sapiens, UniProt P00519, T315I, cells depend on it); assay: as above; format: cell-based, mice
Description: The heterocyclic alkynyl benzene compounds at different concentrations (1×10^−10˜1×10^−5M) were incubated for 72 hours individually applied to 6 cell lines K562 (human CML cell line), MOLT-4 (human ALL cell line), U937 (human CML cell line), MEG-01 (human CML cell line), L78 (human lung cancer cell line), Ba/F3-T315I (mice Pro-B cells transformed with Bcr-AblT315I and STI57′-resistant cell line). After incubation for 72 hrs, cell proliferation was then determined by MTT assay or CCK8 assay, and 4 hr incubation is further conducted, the absorbance at 570 nm (CCK8, 450 nm, 650 nm) was measured using enzyme Microplate Reader.

[6] = test system: U937 Cell line; assay: as above; format: cell-based; conditions: Homo sapiens, read-out: IC50 on tumor cell proliferation, U937
Description: as §1

[7] = test system: K562 cells (human CML cell line expressing native Bcr-Abl); assay: Xenograft model of K562 in nude mice, oral dosing
Description: Tumor volume and body weight were monitored once every 2 days (In each group, the tumor volume and body weight at beginning of the day were recorded). Tumor volume was calculated as […]*a*b*b.L×W2/2 (a and b are the length and width of the tumor, respectively). […] The results were shown in Drawings as FIGS. 1, 2, 3, 4, 5, 6, 7 and 8.

[8] = Pharmacokinetics and bioavailability in rats; format: in vivo; conditions: SD rats; corresponding pharmaceutical acceptable salt forms
Description: Pharmacokinetics and bioavailability in rats. […] The blood samples were collected at the proper time points after administration, add heparin-anticoagulant, and the supernatants of the blood samples were collected (3000 rpm, 10 min) and stored at -20° C. for HPLC-MS analysis. After protein-precipitation procedure with acetonitrile, supernatants were collected after 3000 rpm, 10 min for analysis with HPLC-MS. The data were analyzed with software DAS2.0 to separately acquire the parameters of compartment models and non-compartment models. The bioavailability was calculated according to AUC data.

[9] = Ba/F3 expressing BCR/ABL T315I, 72 h, Table 1, read-out: IC50 on tumor cell proliferation, BAF3-T315I cells
[10] = read-out: IC50 on tumor cell proliferation, BAF3-T315I cells, Ba/F3 expressing BCR/ABL T315I, 72 h, Table 1

Row | Structure (SMILES) | IC50 ([1]; MTT or CCK8, nM) [nM] | IC50 ([4]; imatinib-resistant K562R) [nM] | GI50 [5, 9] [nM] | IC50 [1] [nM] | IC50 [2] [nM] | IC50 [3] [nM] | IC50 ([6]; U-937, 72 h) [nM] | IC50 [4] [nM] | GI50 [5, 10] | IC50 ([2]; MTT or CCK8, nM) [nM] | IC50 ([3]; MTT or CCK8, nM) [nM] | IC50 ([6]; U-937, 72 h, MTT or CCK8, nM) [nM] | also measured
1 | Cc1ccc(C(=O)Nc2cc(-n3ccnc3)cc(C(F)(F)F)c2)cc1C#Cc1cnc(NC2CC2)nc1 [D729, N-(3-(1H-imidazol-1-yl)-5-(trifluoromethyl)phenyl)-3-(2-(2-(cyclopropylamino)pyrimidin-5-yl)ethynyl)-4-methylbenzamide] | 2.09 | 72.7 | 49.7 | – | – | – | – | – | – | – | – | – | IC50 ([2]; MTT or CCK8, no unit in cell): 6580 nM; IC50 ([3]; MTT or CCK8, no unit in cell): 5750 nM; GI50 ([5]; Ba/F3 carrying T315I Bcr-Abl, STI571-resistant, Table 2, read-out: IC50 on the cell proliferation of Ba/F3 (T315I)): < 100 nM
2 | Cc1cn(-c2cc(NC(=O)c3ccc(C)c(C#Cc4cnc(N5CCCCC5)nc4)c3)cc(C(F)(F)F)c2)cn1 [D797, 4-methyl-N-(3-(4-methyl-1H-imidazol-1-yl)-5-(trifluoromethyl)phenyl)-3-(2-(2-(piperidin-1-yl)pyrimidin-5-yl)ethynyl)benzamide] | – | – | – | > 100 | > 100 | > 10 | > 100 | 3370 | 13000 nM | – | – | – | –
3 | Cc1cn(-c2cc(NC(=O)c3ccc(C)c(C#Cc4cnc5ncnn5c4)c3)cc(C(F)(F)F)c2)cn1 [D798, 3-(2-([1,2,4]-triazolo[1,5-a]pyrimidin-6-yl)ethynyl)-4-methyl-N-(3-(4-methyl-1H-imidazol-1-yl)-5-(trifluoromethyl)phenyl)benzamide] | 34 | 1220 | 1860 | – | – | – | – | – | – | > 100 | > 10 | > 100 | –
4 | Cc1cn(-c2cc(NC(=O)c3ccc(C)c(C#Cc4cnc5nccn5c4)c3)cc(C(F)(F)F)c2)cn1 [D799, 3-(2-(imidazo[1,2-a]pyrimidin-6-yl)ethynyl)-4-methyl-N-(3-(4-methyl-1H-imidazol-1-yl)-5-(trifluoromethyl)phenyl)benzamide] | 36.2 | 612 | > 10000 | – | – | – | – | – | – | > 100 | > 100 | > 100 | –
5 | CNc1ncc(C#Cc2cc(C(=O)Nc3cc(-n4cnc(C)c4)cc(C(F)(F)F)c3)ccc2C)cn1 [D800 mesylate, 4-methyl-N-(3-(4-methyl-1H-imidazol-1-yl)-5-(trifluoromethyl)phenyl)-3-(2-(2-(methylamino)pyrimidin-5-yl)ethynyl)benzamide] | – | – | – | – | – | – | – | – | – | – | – | – | effect on tumor growth ([7]; 25 mg/kg po qd): completely inhibit the tumor growth; effect on body weight ([7]; po, qd): did not cause the body weight loss
6 | CNc1ncc(C#Cc2cc(C(=O)Nc3cc(-n4cnc(C)c4)cc(C(F)(F)F)c3)ccc2C)cn1 [D800, 4-methyl-N-(3-(4-methyl-1H-imidazol-1-yl)-5-(trifluoromethyl)phenyl)-3-(2-(2-(methylamino)pyrimidin-5-yl)ethynyl)benzamide] | – | – | – | 1.1 | > 100 | > 100 | > 100 | 89.7 | 99.8 nM | – | – | – | pharmacokinetics parameters, overall judgement [8]: adequate pharmacokinetics parameters
7 | Cc1cn(-c2cc(NC(=O)c3ccc(C)c(C#Cc4cnc(N)nc4)c3)cc(C(F)(F)F)c2)cn1 [D803, 3-(2-(2-aminopyrimidin-5-yl)ethynyl)-4-methyl-N-(3-(4-methyl-1H-imidazol-1-yl)-5-(trifluoromethyl)phenyl)benzamide] | – | – | – | 1.52 | > 100 | 132 | 147 | 63.3 | 124 nM and 85.8 nM | – | – | – | –
8 | Cc1cn(-c2cc(NC(=O)c3ccc(C)c(C#Cc4cnc(NC(C)(C)C)nc4)c3)cc(C(F)(F)F)c2)cn1 [D806, 3-(2-(2-(tert-butylamino)pyrimidin-5-yl)ethynyl)-4-methyl-N-(3-(4-methyl-1H-imidazol-1-yl)-5-(trifluoromethyl)phenyl)benzamide] | – | – | – | > 100 | 131 | > 100 | 147 | – | 1890 nM | – | – | – | –
9 | CCN(CC)c1ncc(C#Cc2cc(C(=O)Nc3cc(-n4cnc(C)c4)cc(C(F)(F)F)c3)ccc2C)cn1 [D807, 3-(2-(2-(diethylamino)pyrimidin-5-yl)ethynyl)-4-methyl-N-(3-(4-methyl-1H-imidazol-1-yl)-5-(trifluoromethyl)phenyl)benzamide] | 128 | 14100 | 13400 | – | – | – | – | – | – | > 100 | > 100 | 126 | –
10 | Cc1cn(-c2cc(NC(=O)c3ccc(C)c(C#Cc4cnc(Nc5ccccc5)nc4)c3)cc(C(F)(F)F)c2)cn1 [D809, 4-methyl-N-(3-(4-methyl-1H-imidazol-1-yl)-5-(trifluoromethyl)phenyl)-3-(2-(2-(phenylamino)pyrimidin-5-yl)ethynyl)benzamide] | – | – | – | > 100 | 115 | > 100 | > 100 | 177 | 102 nM and 71.1 nM | – | – | – | –
11 | Cc1ncn(-c2cc(NC(=O)c3ccc(C)c(C#Cc4cnc5ccnn5c4)c3)cc(C(F)(F)F)c2)n1 [D818, 4-methyl-N-(3-(3-methyl-1H-1,2,4-triazol-1-yl)-5-(trifluoromethyl)phenyl)-3-(2-(pyrazolo[1,5-a]pyrimidin-6-yl)ethynyl)benzamide] | 1.38 | 142 | 394 | – | – | – | – | – | – | 210 | > 100 | > 100 | –
12 | Cc1ccc(C(=O)Nc2cc(-n3ccnc3)cc(C(F)(F)F)c2)cc1C#Cc1cnc2ccnn2c1 [D819, N-(3-(1H-imidazol-1-yl)-5-(trifluoromethyl)phenyl)-4-methyl-3-(2-(pyrazolo[1,5-a]pyrimidin-6-yl)ethynyl)benzamide] | 1.5 | 146 | 3120 | – | – | – | – | – | – | 122 | 146 | 2210 | –
13 | Cc1cn(-c2cc(NC(=O)c3ccc(C)c(C#Cc4cnc(NCCO)nc4)c3)cc(C(F)(F)F)c2)cn1 [D820, 3-(2-(2-(2-hydroxyethylamino)pyrimidin-5-yl)ethynyl)-4-methyl-N-(3-(4-methyl-1H-imidazol-1-yl)-5-(trifluoromethyl)phenyl)benzamide] | – | – | – | 1.37 | > 100 | 134 | > 100 | 35.2 | 276 nM | – | – | – | –
14 | Cc1ccc(C(=O)Nc2ccc(CN3CCN(C)CC3)c(C(F)(F)F)c2)cc1C#Cc1cnc2ccnn2c1 [D856, 4-methyl-N-(4-((4-methylpiperazin-1-yl)methyl)-3-(trifluoromethyl)phenyl)-3-(2-(pyrazolo[1,5-a]pyrimidin-6-yl)ethynyl)benzamide] | – | 67 | 10.8 | – | – | – | – | – | – | – | – | – | IC50 ([1]; MTT or CCK8, no unit in cell): 2.24 nM; IC50 ([3]; MTT or CCK8, no unit in cell): 499 nM; IC50 ([6]; U-937, 72 h, MTT or CCK8, no unit in cell): 2000 nM; pharmacokinetics parameters, overall judgement [8]: adequate pharmacokinetics parameters
